PubChem BioAssay (NCI)
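Each compound was tested at five concentrations against cells in 96-well plates for 48 hours. The concentration for full growth arrest is given as TGI.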

How the values were obtained:
Test in all cases: NCI anticancer screen, dose series, 48 h
MDA-MB-435 = system: MDA-MB-435
SF-539 CNS = system: SF-539 CNS
MDA-N = system: MDA-N
OVCAR-3 ovarian = system: OVCAR-3 ovarian
OVCAR-5 ovarian = system: OVCAR-5 ovarian
A549 NSCLC = system: A549 NSCLC
OVCAR-8 ovarian = system: OVCAR-8 ovarian
CAKI-1 renal = system: CAKI-1 renal
HT29 colon = system: HT29 colon
U251 CNS = system: U251 CNS
UO-31 renal = system: UO-31 renal
RXF 393 renal = system: RXF 393 renal
NCI/ADR-RES ovarian = system: NCI/ADR-RES ovarian
OVCAR-4 ovarian = system: OVCAR-4 ovarian
IGROV1 ovarian = system: IGROV1 ovarian
NCI-H460 lung = system: NCI-H460 lung
RPMI-8226 leukemia = system: RPMI-8226 leukemia
MALME-3M melanoma = system: MALME-3M melanoma
SK-MEL-28 melanoma = system: SK-MEL-28 melanoma
HOP-92 NSCLC = system: HOP-92 NSCLC
PC-3 prostate = system: PC-3 prostate
COLO 205 colon = system: COLO 205 colon
NCI-H522 lung = system: NCI-H522 lung
M14 melanoma = system: M14 melanoma
DU-145 prostate = system: DU-145 prostate
MDA-MB-231 breast = system: MDA-MB-231 breast
HCT-15 colon = system: HCT-15 colon
HCC-2998 colon = system: HCC-2998 colon
EKVX NSCLC = system: EKVX NSCLC
MOLT-4 leukemia = system: MOLT-4 leukemia
A498 renal = system: A498 renal
UACC-257 melanoma = system: UACC-257 melanoma
LOX IMVI melanoma = system: LOX IMVI melanoma
BT-549 breast = system: BT-549 breast
SR leukemia = system: SR leukemia
MCF7 breast = system: MCF7 breast
SN12C renal = system: SN12C renal
SW-620 colon = system: SW-620 colon
T-47D breast = system: T-47D breast
SF-295 CNS = system: SF-295 CNS
SK-OV-3 ovarian = system: SK-OV-3 ovarian
786-0 renal = system: 786-0 renal
KM12 colon = system: KM12 colon
SNB-75 CNS = system: SNB-75 CNS
NCI-H23 lung = system: NCI-H23 lung
K-562 leukemia = system: K-562 leukemia
NCI-H226 lung = system: NCI-H226 lung
HS 578T breast = system: HS 578T breast
HCT-116 colon = system: HCT-116 colon
SNB-19 CNS = system: SNB-19 CNS
HOP-62 NSCLC = system: HOP-62 NSCLC
ACHN renal = system: ACHN renal
TK-10 renal = system: TK-10 renal
SK-MEL-5 melanoma = system: SK-MEL-5 melanoma
SF-268 CNS = system: SF-268 CNS
HL-60(TB) leukemia = system: HL-60(TB) leukemia
UACC-62 melanoma = system: UACC-62 melanoma
SK-MEL-2 melanoma = system: SK-MEL-2 melanoma

O=C1c2ccccc2C(=O)c2c(NCC3CO3)ccc(NCC3CO3)c21 (centres undefined)
TGI (MDA-MB-435): 2.58 µM
TGI (SF-539 CNS): 6.82 µM
TGI (MDA-N): 2.52 µM
TGI (OVCAR-3 ovarian): 15.1 µM
TGI (OVCAR-5 ovarian): > 65.8 µM
TGI (A549 NSCLC): 58.8 µM
TGI (OVCAR-8 ovarian): 2.49 µM
TGI (CAKI-1 renal): 7.79 µM
TGI (HT29 colon): 12.8 µM
TGI (U251 CNS): 8.38 µM
TGI (UO-31 renal): 5.13 µM
TGI (RXF 393 renal): 11.8 µM
TGI (NCI/ADR-RES ovarian): 11.4 µM
TGI (OVCAR-4 ovarian): 34 µM
TGI (IGROV1 ovarian): 15.9 µM
TGI (NCI-H460 lung): > 53.9 µM
TGI (RPMI-8226 leukemia): 33.3 µM
TGI (MALME-3M melanoma): 18.3 µM
TGI (SK-MEL-28 melanoma): 28.1 µM
TGI (HOP-92 NSCLC): 38 µM
TGI (PC-3 prostate): 9.61 µM
TGI (COLO 205 colon): 29.9 µM
TGI (NCI-H522 lung): 20.1 µM
TGI (M14 melanoma): 2.57 µM
TGI (DU-145 prostate): 30.2 µM
TGI (MDA-MB-231 breast): 14.8 µM
TGI (HCT-15 colon): > 22.5 µM
TGI (HCC-2998 colon): > 81.4 µM
TGI (EKVX NSCLC): > 51.5 µM
TGI (MOLT-4 leukemia): 0.53 µM
TGI (A498 renal): > 83.9 µM
TGI (UACC-257 melanoma): 23.9 µM
TGI (LOX IMVI melanoma): 0.0161 µM
TGI (BT-549 breast): 14.1 µM
TGI (SR leukemia): > 27.2 µM
TGI (MCF7 breast): 1.25 µM
TGI (SN12C renal): 2.06 µM
TGI (SW-620 colon): 6.04 µM
TGI (T-47D breast): > 42.1 µM
TGI (SF-295 CNS): 23.7 µM
TGI (SK-OV-3 ovarian): > 47 µM
TGI (786-0 renal): 5.57 µM
TGI (KM12 colon): 19.4 µM
TGI (SNB-75 CNS): > 100 µM
TGI (NCI-H23 lung): 8.71 µM
TGI (K-562 leukemia): > 100 µM
TGI (NCI-H226 lung): 35.4 µM
TGI (HS 578T breast): 15.3 µM
TGI (HCT-116 colon): 1.21 µM
TGI (SNB-19 CNS): > 39.3 µM
TGI (HOP-62 NSCLC): 6.96 µM
TGI (ACHN renal): 2.62 µM
TGI (TK-10 renal): 45 µM
TGI (SK-MEL-5 melanoma): 6.44 µM

NNC(=O)c1ccc(OCc2nc3ccccc3[nH]2)cc1
TGI (MDA-MB-435): > 100 µM
TGI (SF-539 CNS): > 100 µM
TGI (MDA-N): > 100 µM
TGI (SF-268 CNS): > 100 µM
TGI (OVCAR-3 ovarian): > 100 µM
TGI (OVCAR-5 ovarian): > 100 µM
TGI (A549 NSCLC): > 100 µM
TGI (OVCAR-8 ovarian): > 100 µM
TGI (CAKI-1 renal): > 100 µM
TGI (HT29 colon): > 100 µM
TGI (U251 CNS): > 100 µM
TGI (UO-31 renal): > 100 µM
TGI (RXF 393 renal): > 100 µM
TGI (NCI/ADR-RES ovarian): > 100 µM
TGI (OVCAR-4 ovarian): > 100 µM
TGI (IGROV1 ovarian): > 100 µM
TGI (NCI-H460 lung): > 100 µM
TGI (RPMI-8226 leukemia): > 100 µM
TGI (MALME-3M melanoma): > 100 µM
TGI (SK-MEL-28 melanoma): > 100 µM
TGI (HOP-92 NSCLC): > 100 µM
TGI (HL-60(TB) leukemia): > 100 µM
TGI (PC-3 prostate): > 100 µM
TGI (COLO 205 colon): > 100 µM
TGI (NCI-H522 lung): > 100 µM
TGI (M14 melanoma): > 100 µM
TGI (DU-145 prostate): > 100 µM
TGI (MDA-MB-231 breast): > 100 µM
TGI (HCT-15 colon): > 100 µM
TGI (EKVX NSCLC): > 100 µM
TGI (MOLT-4 leukemia): > 100 µM
TGI (A498 renal): > 100 µM
TGI (UACC-257 melanoma): > 100 µM
TGI (LOX IMVI melanoma): > 100 µM
TGI (BT-549 breast): > 100 µM
TGI (SR leukemia): > 100 µM
TGI (MCF7 breast): > 100 µM
TGI (UACC-62 melanoma): > 100 µM
TGI (SN12C renal): > 100 µM
TGI (SW-620 colon): > 100 µM
TGI (T-47D breast): > 100 µM
TGI (SF-295 CNS): > 100 µM
TGI (SK-OV-3 ovarian): > 100 µM
TGI (786-0 renal): > 100 µM
TGI (KM12 colon): > 100 µM
TGI (NCI-H23 lung): > 100 µM
TGI (K-562 leukemia): > 100 µM
TGI (NCI-H226 lung): > 100 µM
TGI (HS 578T breast): > 100 µM
TGI (HCT-116 colon): > 100 µM
TGI (SNB-19 CNS): > 100 µM
TGI (SK-MEL-2 melanoma): > 100 µM
TGI (ACHN renal): > 100 µM
TGI (TK-10 renal): > 100 µM
TGI (SK-MEL-5 melanoma): > 100 µM
